# Experimental data published in patent publication US10040838B2, “CRHR2 peptide agonists and uses thereof” (JANSSEN PHARMACEUTICA NV, priority 2008, dated 2018).
# Residues, ends and D or L forms follow the SMILES beside them. *: point of attachment. Succinimide(1-Et,3-yl) = CCN1C(=O)CC(*)C1=O
# Target: T1, human CRHR2 (Homo sapiens, UniProt Q13324)
# T1 construct: expressed in transfected cells
# T1 sequence (Q13324 1-411): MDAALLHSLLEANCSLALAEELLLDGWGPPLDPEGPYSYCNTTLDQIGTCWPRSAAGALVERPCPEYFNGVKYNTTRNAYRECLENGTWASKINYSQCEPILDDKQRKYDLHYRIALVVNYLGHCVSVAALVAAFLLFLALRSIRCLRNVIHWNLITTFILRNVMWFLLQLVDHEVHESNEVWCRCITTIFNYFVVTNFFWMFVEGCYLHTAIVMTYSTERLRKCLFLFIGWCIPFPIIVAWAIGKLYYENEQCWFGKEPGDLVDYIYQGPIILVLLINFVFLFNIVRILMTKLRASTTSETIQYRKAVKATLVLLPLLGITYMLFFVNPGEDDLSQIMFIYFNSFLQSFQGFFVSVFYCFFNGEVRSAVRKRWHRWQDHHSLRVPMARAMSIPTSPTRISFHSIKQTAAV
# Assay: cAMP assay in h-CRHR2 transfected SK-N-MC cells
# Format: cell-based
# Details: Table 13; h-SCP control pA50 minus test compound pA50 within same assay batch
# Method: The concentration required for 50% maximum effect (A50) was 0.4 nM.
# Human CRHR1 (accession number X72304) or CRHR2 (accession number U34587) were cloned into pcDNA3.1/Zeo expression vector and stably transfected into SK-N-MC cells by electroporation. Cells were maintained in MEM w/Earl's Salt with 10% FBS, 50 I.U. penicillin, 50 μg/ml streptomycin, 2 mM L-glutamine, 1 mM sodium pyruvate and 0.1 mM nonessential amino acids, 600 μg/ml G418. Cells were grown at 37° C. in 5% CO2.
# Cells were plated in 96-well tissue culture dishes (Biocoat from BD Biosciences) overnight at 50,000 cell/well. Cells were washed with PBS then resuspended in DMEM F-12 without phenol red, containing 10 μM isobutylmethylxanthine (IBMX). Cells were incubated with the peptides at concentrations ranging from 1 pM to 10 μM for 60 min at 37° Celsius. […] Forskolin (10 μM), a direct stimulant of adenylate cyclase, was used as positive control. The assays were stopped by the addition of 0.5 M HCl and mixing by orbital rotation for 2 h at 4° Celsius.
# To assess the activity of the inventive peptide at the CRHR2, an intracellular cAMP measurement test using a Flash plate radioactive assay (Catalog No. Cus56088; Perkin Elmer, MA, U.S.A.) was employed.
# Transfected SK-N-MC cells were plated in 96-well Biocoat tissue culture dishes (BD Biosciences, San Jose, Calif., U.S.A) overnight at 50,000 cell/well. Cells were first washed with PBS and then suspended with DMEM/F-12 without phenol red, containing […]. Suspended cells were transferred into a 96-well flash plate coated with scintillant fluid. Cells were incubated with peptides ranging from […], for 60 min, at 37° Celsius. Forskolin at 10 μM was used as positive control. After ligand stimulation, cells were lysed by the addition of 0.5M HCl and mixed by orbital rotation for 2 h at 4° Celsius in order to release intracellular cAMP into the media.
# Media containing released intracellular cAMP was transferred to a 96-well flash plate coated with scintillant fluid containing an anti-cAMP antibody. In this assay, intracellular cAMP competes with ^125I-labeled cAMP binding to the antibody. To generate a standard curve, cAMP ranging from 2.5 to 250 pmoles/ml was included in the experiment. [^125I]-cAMP was measured on a TopCount scintillation counter (Perkin Elmer, MA, U.S.A).
# Individual agonist concentration-response curve data were fitted to the Hill equation, see formula below, using GraphPad Prism (Graphpad Software, La Jolla, Calif., U.S.A.), to provide estimates of agonist concentration needed to generate one-half maximal response (A50), and the maximal asymptote (α) and Hill slope (nH) parameters. In this equation, [A] is the agonist concentration and E is the measured effect:
# For display purposes the mean fitted parameter estimates were used to generate a single E/[A] curve shown superimposed on the mean experimental data. Potency estimates for agonists, pA50, are expressed as the negative logarithm of the midpoint of each curve and listed with their standard error of measurement (SEM). Logarithm base 10 of the agonist dose ratio (Log DR) values were calculated by subtraction of the test compound pA50 value from the corresponding h-SCP (SEQ ID NO:1) control pA50 value within the same assay batch. The SEM values of the Log DR values are given by the square root of the sum of the squared SEM values of the h-SCP (SEQ ID NO:1) control and test compound pA50 values.
# Human and rat peptides (see Table 10) were used on the stimulation of h-CRHR1 or h-CRHR2 transfected SK-N-MC cells in the cAMP flash plate assay. Peptides were incubated for 1 hr at 37° Celsius. Curves were calculated using non-linear regression sigmoidal concentration-response analysis calculation in GraphPad Prism. The so obtained pA50 values are shown in Table 11 in addition to literature values. […]
row,Compound,Log DR
1,"CC[C@H](C)[C@H](NC(=O)[C@H](CC(N)=O)NC(=O)[C@H](Cc1ccccc1)NC(=O)[C@H](CC(C)C)NC(=O)[C@H](CC(C)C)NC(=O)[C@H](CC(N)=O)NC(=O)[C@H](CCSC)NC(=O)[C@@H](NC(=O)[C@H](CC(N)=O)NC(=O)[C@@H](NC(=O)[C@@H]1CCCN1C(=O)[C@@H](NC(=O)[C@H](CC(=O)O)NC(=O)[C@H](CC(C)C)NC(=O)[C@H](CO)NC(=O)[C@H](CC(C)C)NC(=O)[C@@H](NC(=O)[C@H](Cc1ccccc1)NC(=O)[C@H](CCCCN)NC(=O)[C@@H](N)[C@@H](C)O)[C@@H](C)O)C(C)C)[C@@H](C)O)[C@@H](C)CC)C(=O)N[C@@H](C)C(=O)N[C@@H](CCCCN)C(=O)N[C@@H](C)C(=O)N[C@@H](CCCCN)C(=O)N[C@@H](CC(N)=O)C(=O)N[C@@H](CC(C)C)C(=O)N[C@@H](CCCNC(=N)N)C(=O)N[C@@H](C)C(=O)N[C@@H](CCC(N)=O)C(=O)N[C@@H](C)C(=O)N[C@@H](C)C(=O)N[C@@H](C)C(=O)N[C@@H](CC(N)=O)C(=O)N[C@@H](C)C(=O)N[C@@H](Cc1c[nH]cn1)C(=O)N[C@@H](CC(C)C)C(=O)N[C@@H](CCSC)C(=O)N[C@@H](C)C(=O)N[C@@H](CCC(N)=O)C(=O)N[C@@H](CSC1CC(=O)N(CC)C1=O)C(N)=O (stereo partly shown) [SEQ ID NO: 42, TKFTLSLDVPTNIMNLLFNIAKAKNLRAQAAANAHLMAQC(-NES)-NH2] (H-TKFTLSLDVPTNIMNLLFNIAKAKNLRAQAAANAHLMAQC(Succinimide(1-Et,3-yl))-NH2; N-terminus assumed)",~1.72
2,"CC[C@H](C)[C@H](NC(=O)[C@H](CCC(N)=O)NC(=O)[C@H](C)NC(=O)[C@H](CCSC)NC(=O)[C@H](CC(C)C)NC(=O)[C@H](CSC1CC(=O)N(CC)C1=O)NC(=O)[C@H](C)NC(=O)[C@H](CC(N)=O)NC(=O)[C@H](C)NC(=O)[C@H](C)NC(=O)[C@H](C)NC(=O)[C@H](CCC(N)=O)NC(=O)[C@H](C)NC(=O)[C@H](CCCNC(=N)N)NC(=O)[C@H](CC(C)C)NC(=O)[C@H](CC(N)=O)NC(=O)[C@H](CCCCN)NC(=O)[C@H](C)NC(=O)[C@H](CCCCN)NC(=O)[C@H](C)NC(=O)[C@@H](NC(=O)[C@H](CC(N)=O)NC(=O)[C@H](Cc1ccccc1)NC(=O)[C@H](CC(C)C)NC(=O)[C@H](CC(C)C)NC(=O)[C@H](CC(N)=O)NC(=O)[C@H](CCSC)NC(=O)[C@@H](NC(=O)[C@H](CC(N)=O)NC(=O)[C@@H](NC(=O)[C@@H]1CCCN1C(=O)[C@@H](NC(=O)[C@H](CC(=O)O)NC(=O)[C@H](CC(C)C)NC(=O)[C@H](CO)NC(=O)[C@H](CC(C)C)NC(=O)[C@@H](NC(=O)[C@H](Cc1ccccc1)NC(=O)[C@H](CCCCN)NC(=O)[C@@H](N)[C@@H](C)O)[C@@H](C)O)C(C)C)[C@@H](C)O)[C@@H](C)CC)[C@@H](C)CC)C(N)=O (stereo partly shown) [SEQ ID NO: 43, TKFTLSLDVPTNIMNLLFNIAKAKNLRAQAAANAC(-NES) LMAQI-NH2] (H-TKFTLSLDVPTNIMNLLFNIAKAKNLRAQAAANAC(Succinimide(1-Et,3-yl))LMAQI-NH2; N-terminus assumed)",−0.32
3,"CC[C@H](C)[C@H](NC(=O)[C@H](CCC(N)=O)NC(=O)[C@H](C)NC(=O)[C@H](CCSC)NC(=O)[C@H](CC(C)C)NC(=O)[C@H](Cc1c[nH]cn1)NC(=O)[C@H](C)NC(=O)[C@H](CSC1CC(=O)N(CC)C1=O)NC(=O)[C@H](C)NC(=O)[C@H](C)NC(=O)[C@H](C)NC(=O)[C@H](CCC(N)=O)NC(=O)[C@H](C)NC(=O)[C@H](CCCNC(=N)N)NC(=O)[C@H](CC(C)C)NC(=O)[C@H](CC(N)=O)NC(=O)[C@H](CCCCN)NC(=O)[C@H](C)NC(=O)[C@H](CCCCN)NC(=O)[C@H](C)NC(=O)[C@@H](NC(=O)[C@H](CC(N)=O)NC(=O)[C@H](Cc1ccccc1)NC(=O)[C@H](CC(C)C)NC(=O)[C@H](CC(C)C)NC(=O)[C@H](CC(N)=O)NC(=O)[C@H](CCSC)NC(=O)[C@@H](NC(=O)[C@H](CC(N)=O)NC(=O)[C@@H](NC(=O)[C@@H]1CCCN1C(=O)[C@@H](NC(=O)[C@H](CC(=O)O)NC(=O)[C@H](CC(C)C)NC(=O)[C@H](CO)NC(=O)[C@H](CC(C)C)NC(=O)[C@@H](NC(=O)[C@H](Cc1ccccc1)NC(=O)[C@H](CCCCN)NC(=O)[C@@H](N)[C@@H](C)O)[C@@H](C)O)C(C)C)[C@@H](C)O)[C@@H](C)CC)[C@@H](C)CC)C(N)=O (stereo partly shown) [SEQ ID NO: 44, TKFTLSLDVPTNIMNLLFNIAKAKNLRAQAAAC(-NES)AH LMAQI-NH2] (H-TKFTLSLDVPTNIMNLLFNIAKAKNLRAQAAAC(Succinimide(1-Et,3-yl))AHLMAQI-NH2; N-terminus assumed)",~1.97
4,"CC[C@H](C)[C@H](NC(=O)[C@H](CCC(N)=O)NC(=O)[C@H](C)NC(=O)[C@H](CCSC)NC(=O)[C@H](CC(C)C)NC(=O)[C@H](Cc1c[nH]cn1)NC(=O)[C@H](C)NC(=O)[C@H](CC(N)=O)NC(=O)[C@H](CSC1CC(=O)N(CC)C1=O)NC(=O)[C@H](C)NC(=O)[C@H](C)NC(=O)[C@H](CCC(N)=O)NC(=O)[C@H](C)NC(=O)[C@H](CCCNC(=N)N)NC(=O)[C@H](CC(C)C)NC(=O)[C@H](CC(N)=O)NC(=O)[C@H](CCCCN)NC(=O)[C@H](C)NC(=O)[C@H](CCCCN)NC(=O)[C@H](C)NC(=O)[C@@H](NC(=O)[C@H](CC(N)=O)NC(=O)[C@H](Cc1ccccc1)NC(=O)[C@H](CC(C)C)NC(=O)[C@H](CC(C)C)NC(=O)[C@H](CC(N)=O)NC(=O)[C@H](CCSC)NC(=O)[C@@H](NC(=O)[C@H](CC(N)=O)NC(=O)[C@@H](NC(=O)[C@@H]1CCCN1C(=O)[C@@H](NC(=O)[C@H](CC(=O)O)NC(=O)[C@H](CC(C)C)NC(=O)[C@H](CO)NC(=O)[C@H](CC(C)C)NC(=O)[C@@H](NC(=O)[C@H](Cc1ccccc1)NC(=O)[C@H](CCCCN)NC(=O)[C@@H](N)[C@@H](C)O)[C@@H](C)O)C(C)C)[C@@H](C)O)[C@@H](C)CC)[C@@H](C)CC)C(N)=O (stereo partly shown) [SEQ ID NO: 45, TKFTLSLDVPTNIMNLLFNIAKAKNLRAQAAC(-NES)NAH LMAQI-NH2] (H-TKFTLSLDVPTNIMNLLFNIAKAKNLRAQAAC(Succinimide(1-Et,3-yl))NAHLMAQI-NH2; N-terminus assumed)",−0.01
